Test results as given in paper PMC9848351, “Discovery of new pyridine-quinoline hybrids as competitive and non-competitive PIM-1 kinase inhibitors with apoptosis induction and caspase 3/7 activation capabilities” (Journal of Enzyme Inhibition and Medicinal Chemistry, 2023).

How the values were obtained:
[1] = tested on: Colon cancer cells (Caco-2); assay: MTT anticancer activity, Caco-2; format: cell-based, human; settings: for IC50: Homo sapiens, Caco-2, 72 h, MTT, mean ± SEM; for Caco-2 LE: ligand efficiency from IC50 and number of heavy atoms; for Caco-2 LLE: ligand lipophilic efficiency, potency in terms of lipophilicity; for Caco-2 SI: selectivity index, Wi-38 versus Caco-2
Procedure, shortened: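 Cells seeded at 5x10^3/well (Caco-2 in DMEM, others in RPMI-1640, 10% FBS) and exposed to serial compound concentrations for 72 h at 37 °C, 5% CO2, starting 24 h after seeding. MTT (3 h, 37 °C) read at 570 nm after DMSO solubilisation; IC50 calculated from viability.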

[2] = tested on: Caco-2; assay: Flow cytometric annexin V/PI analysis of apoptosis, Caco-2; format: cell-based; settings: IC50 of compound, 72 h, mean ± SEM
Experimental: (§1) The apoptosis-dependent […] was determined by quantification of annexin-stained apoptotic cells using the FITC signal detector (FL1) against the phycoerythrin emission signal detector (FL2) (Supplementary Page S55). […]
MTT method was used for assaying cell viability 25. Twenty microliters of 5 mg/ml MTT (Sigma, USA) was added to each well and the plate was incubated at 37 °C for 3 h. Then MTT solution was removed, 100 µl DMSO was used and the absorbance of each well was measured with a microplate reader ( BMG LabTech, […]
Germany) at 570 nm. […]
(§2) Graphpad Instat software.
(§3) Determination of the anticancer activity
Anticancer effect of the above-mentioned compounds was evaluated using four human […]
cancer cell lines. […]
All cancer cells (5x10^3 cells/well) were seeded in sterile
96-well plates. After 24h, serial concentrations of the tested compounds and Dox were incubated with four cancer cell lines for 72 h at 37 °C in 5% CO2 incubator. MTT method was done as described above. The Graphpad Instat software was used for calculating the half maximal inhibitory concentration (IC50) values. […]
(§4) Flow cytometric analysis of apoptosis
(§5) Caco-2, PC-3 and NFS-60 cell lines. After trypsinization, the untreated and treated cells were incubated with annexin V/PI for 15 min. Then cells were fixed and incubated with streptavidin-fluorescein (5 µg/mL) for 15 min. The apoptosis-dependent anticancer effect was determined by quantification of annexin-stained apoptotic cells using the FITC signal detector (FL1) against the phycoerythrin emission signal detector (FL2). […]

[3] = tested on: NFS-60; assay: Flow cytometric annexin V/PI analysis of apoptosis, NFS-60; format: cell-based, human; settings: IC50 of compound, 72 h, mean ± SEM
Experimental: as §1
MTT method was used for assaying cell viability 25. Twenty microliters of 5 mg/ml MTT (Sigma, USA) was added to each well and the plate was incubated at […]
37 °C for 3 h. […]
as §2, §3
Anticancer effect of the above-mentioned compounds was evaluated using four human cancer cell lines. Colon cancer cells (Caco-2) were maintained in DMEM (Lonza, USA) containing 10% FBS while myeloid leukemia cell line (NFS-60), liver cancer cell line (HepG-2) and prostate cancer cell line (PC-3) were cultured in RPMI-1640 (Lonza, USA) supplemented with 10% FBS. All cancer cells (5x10^3 cells/well) were seeded in sterile 96-well plates. After 24h, serial concentrations of the tested compounds and Dox were incubated with four cancer cell lines for 72 h at 37 °C in 5% CO2 incubator. MTT method was done as described above. The Graphpad Instat software was used for calculating the half maximal inhibitory concentration (IC50) values. […]
as §4, §5

[4] = biological target: PIM-2 kinase (Homo sapiens, UniProt Q9P1W9); assay: PIM-2 kinase inhibitory activity (Promega kinase assay kit)
[5] = biological target: PIM-1 kinase (Homo sapiens, UniProt P11309); assay: PIM-1 kinase inhibitory activity (Promega kinase assay kit)
[6] = tested on: caspase 3/7 in HepG-2 cells; assay: Caspase 3/7 activation assay (Apo-ONE kit); format: cell-based, human; settings: caspase 3/7, relative to untreated HepG2 cells; mean ± SEM
Excerpt: The percentage of caspase 3/7 activation was quantified using the Apo-ONE ® caspase 3/7 kit following the manufacturer’s instructions[27] (Supplementary Page S56).
It’s a fluorescence assay that measures caspase-3 and −7 activities. Caspase 3/7 activators are well known as apoptotic inducers.
Caspase 3/7 activation assay
The Apo-ONE ® caspase 3/7 kit following the manufacturer’s instructions was used for quantifying the percentage of caspase 3/7 activation. The fluorescence substrate present in the kit was cut by caspases to produce fluorescence signal. This signal was measured by the fluorescence omega microplate reader (BMG LabTech, Germany) at 490 nm excitation and 520 nm emission.
Data were expressed as mean ± standard error of the mean (SEM). Statistical significance was estimated by the multiple comparisons Tukey post-hoc analysis of variance (ANOVA) using the SPSS16 program. When p < 0.05, the differences were marked as statistically significant.
PIM-1 and PIM-2 kinase inhibitory activity
PIM-1 and PIM-2 kinase utilizing PIM-1 and PIM-2 Kinase Assay Kit – Promega Corporation catalog #V4032, following the manufacturer’s instructions 26 […]
Information Classification: General

Sequence of PIM-1 kinase (P11309 whole entry): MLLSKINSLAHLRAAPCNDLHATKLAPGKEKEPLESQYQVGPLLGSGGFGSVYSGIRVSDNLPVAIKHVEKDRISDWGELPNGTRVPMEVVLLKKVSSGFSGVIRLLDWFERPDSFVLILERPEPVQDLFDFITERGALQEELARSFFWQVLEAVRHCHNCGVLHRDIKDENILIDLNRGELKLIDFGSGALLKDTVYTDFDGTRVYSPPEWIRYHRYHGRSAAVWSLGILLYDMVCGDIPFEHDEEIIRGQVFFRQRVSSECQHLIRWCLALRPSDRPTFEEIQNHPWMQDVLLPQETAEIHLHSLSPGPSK
Sequence of PIM-2 kinase (Q9P1W9 whole entry): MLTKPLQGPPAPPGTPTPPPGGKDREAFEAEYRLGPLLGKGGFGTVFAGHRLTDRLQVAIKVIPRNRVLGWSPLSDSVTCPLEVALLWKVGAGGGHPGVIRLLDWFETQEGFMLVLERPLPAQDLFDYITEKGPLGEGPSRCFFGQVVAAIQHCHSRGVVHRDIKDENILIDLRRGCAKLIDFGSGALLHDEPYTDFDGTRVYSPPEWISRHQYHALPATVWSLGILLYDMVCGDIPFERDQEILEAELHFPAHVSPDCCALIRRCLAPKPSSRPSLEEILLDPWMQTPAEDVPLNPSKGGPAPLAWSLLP

## N#Cc1c(-c2cc3cc(Cl)ccc3nc2N2CCOCC2)cc(-c2cccc(O)c2)[nH]c1=O [5b, 4-(6-Chloro-2-morpholin-4-yl-quinolin-3-yl)-6-(3-hydroxyphenyl)-2-oxo-1,2-dihydropyridine-3-carbonitrile]
[1]
  IC50: 45.3 ± 1 nM
  Caco-2 LE: 0.30
  Caco-2 LLE: 3.28
  Caco-2 SI: 3.775
[2]
  total percentage of the apoptotic cell population, Caco-2: 44.045 ± 0.185%
[3]
  total percentage of the apoptotic cell population, NFS-60: 54.2 ± 0.47%
[4]
  IC50: 670 nM

## COc1ccc2nc(N3CCOCC3)c(-c3cc(-c4cccc(O)c4)[nH]c(=O)c3C#N)cc2c1 [5c, 6-(3-Hydroxyphenyl)-4-(6-methoxy-2-morpholin-4-yl-quinolin-3-yl)-2-oxo-1,2-dihydropyridine-3-carbonitrile]
[1]
  IC50: 36.1 ± 0.1 nM
  Caco-2 LE: 0.30
  Caco-2 LLE: 4.00
  Caco-2 SI: 19.861
[2]
  total percentage of the apoptotic cell population, Caco-2: 33.89 ± 0.175%
[3]
  total percentage of the apoptotic cell population, NFS-60: 51.53 ± 0.09%
[4]
  IC50: 1660 nM

## N#Cc1c(-c2cc3ccccc3[nH]c2=O)cc(-c2cccc(O)c2)[nH]c1=O [13a, 6-(3-Hydroxyphenyl)-2-oxo-4-(2-oxo-1,2-dihydroquinolin-3-yl)-1,2-dihydropyridine-3-carbonitrile]
[1]
  IC50: 22.8 ± 1 nM
  Caco-2 LE: 0.39
  Caco-2 LLE: 5.31
  Caco-2 SI: 1.118
[2]
  total percentage of the apoptotic cell population, Caco-2: 58.28 ± 0.26%
[3]
  total percentage of the apoptotic cell population, NFS-60: 59.23 ± 0.04%
[5]
  IC50: 1270 nM

## COc1ccc2[nH]c(=O)c(-c3cc(-c4cccc(O)c4)[nH]c(=O)c3C#N)cc2c1 [13c, 6-(3-Hydroxyphenyl)-4-(6-methoxy-2-oxo-1,2-dihydroquinolin-3-yl)-2-oxo-1,2-dihydropyridine-3-carbonitrile]
[1]
  IC50: 33.7 ± 6 nM
  Caco-2 LE: 0.35
  Caco-2 LLE: 5.11
  Caco-2 SI: 1.033
[2]
  total percentage of the apoptotic cell population, Caco-2: 51.17 ± 0.33%
[3]
  total percentage of the apoptotic cell population, NFS-60: 58.83 ± 0.36%
[5]
  IC50: 7780 nM

## N#Cc1c(-c2cc3ccccc3[nH]c2=O)cc(-c2cccc(O)c2)nc1S [14a, 6-(3-Hydroxyphenyl)-2-mercapto-4-(2-oxo-1,2-dihydroquinolin-3-yl)pyridine-3-carbonitrile]
[1]
  IC50: 14.1 ± 4 nM
  Caco-2 LE: 0.40
  Caco-2 LLE: 5.18
  Caco-2 SI: 21.206
[2]
  total percentage of the apoptotic cell population, Caco-2: 42.17 ± 0.82%
[3]
  total percentage of the apoptotic cell population, NFS-60: 42.005 ± 0.32%
[6]
  Fold increase in caspase activity: 1.86 ± 0.11 fold
[5]
  IC50: 385 nM
